Results as given in publication PMC5218480 (PLoS ONE, 2017).

System: MV-4-11 cells
Assay: Gene expression microarray analysis (Affymetrix PrimeView) and GSEA
Format: cell-based, human
Design: RFU PODN (11730768_x_at) / Fold change /veh PODN (11730768_x_at) / RFU LINC00158 (11744669_a_at) / Fold change /veh LINC00158 (11744669_a_at) / RFU DUSP10 (11751237_a_at) / Fold change /veh DUSP10 (11751237_a_at) / RFU ID3 (11757404_x_at) / Fold change /veh ID3 (11757404_x_at) / RFU PLEKHG5 (11737974_s_at) / Fold change /veh PLEKHG5 (11737974_s_at) / RFU LRRC4B (11730491_at) / Fold change /veh LRRC4B (11730491_at) / RFU GIMAP4 (11747438_a_at) / Fold change /veh GIMAP4 (11747438_a_at) / RFU KRT8 (11758183_x_at) / Fold change /veh KRT8 (11758183_x_at) / RFU CNN1 (11734310_a_at) / Fold change /veh CNN1 (11734310_a_at) / RFU VPS37D (11726825_at) / Fold change /veh VPS37D (11726825_at) / RFU C10orf10 (11716522_x_at) / Fold change /veh C10orf10 (11716522_x_at) / RFU KIR2DL2 /// KIR2DL4 /// KIR2DL5A /// KIR2DL5B /// KIR2DS1 /// KIR2DS2 /// KIR2DS3 /// KIR2DS4 /// KIR3DL3 /// KIR3DL3 /// KIR3DS1 (11738374_at) / Fold change /veh KIR2DL2 /// KIR2DL4 /// KIR2DL5A /// KIR2DL5B /// KIR2DS1 /// KIR2DS2 /// KIR2DS3 /// KIR2DS4 /// KIR3DL3 /// KIR3DL3 /// KIR3DS1 (11738374_at) / RFU C1QL1 (11718748_at) / Fold change /veh C1QL1 (11718748_at) / RFU TMPRSS4 (11747572_a_at) / Fold change /veh TMPRSS4 (11747572_a_at) / RFU HAMP (11756126_x_at) / Fold change /veh HAMP (11756126_x_at) / RFU RNFT2 (11725882_a_at) / Fold change /veh RNFT2 (11725882_a_at) / RFU NR4A2 (11747474_a_at) / Fold change /veh NR4A2 (11747474_a_at) / RFU ABCC12 (11746883_a_at) / Fold change /veh ABCC12 (11746883_a_at) / RFU TMEM136 (11760407_x_at) / Fold change /veh TMEM136 (11760407_x_at) / RFU CLDN22 /// WWC2 (11732394_at) / Fold change /veh CLDN22 /// WWC2 (11732394_at) / RFU HLA-DPB1 (11760878_x_at) / Fold change /veh HLA-DPB1 (11760878_x_at) / RFU SPINT1 (11716480_a_at) / Fold change /veh SPINT1 (11716480_a_at) / RFU GAP43 (11754022_s_at) / Fold change /veh GAP43 (11754022_s_at) / RFU A4GNT (11735810_at) / Fold change /veh A4GNT (11735810_at) / RFU PRB3 (11715151_x_at) / Fold change /veh PRB3 (11715151_x_at) / RFU TUBB4B (11761932_at) / Fold change /veh TUBB4B (11761932_at) / RFU CAPN14 (11732068_a_at) / Fold change /veh CAPN14 (11732068_a_at) / RFU TMCC2 (11721928_a_at) / Fold change /veh TMCC2 (11721928_a_at) / RFU IRGQ (11745062_a_at) / Fold change /veh IRGQ (11745062_a_at) / RFU FAM174B (11720279_a_at) / Fold change /veh FAM174B (11720279_a_at) / RFU TMPRSS4 (11748680_a_at) / Fold change /veh TMPRSS4 (11748680_a_at) / RFU FAM212B (11763350_a_at) / Fold change /veh FAM212B (11763350_a_at) / RFU PLEKHG5 (11743358_a_at) / Fold change /veh PLEKHG5 (11743358_a_at) / RFU ZSCAN30 (11745921_a_at) / Fold change /veh ZSCAN30 (11745921_a_at) / RFU CMKLR1 (11741424_a_at) / Fold change /veh CMKLR1 (11741424_a_at) / RFU LOC101060620 /// MAPK8IP1 (11723275_at) / Fold change /veh LOC101060620 /// MAPK8IP1 (11723275_at) / RFU SPTSSB (11747773_x_at) / Fold change /veh SPTSSB (11747773_x_at) / RFU PRSS12 (11739890_at) / Fold change /veh PRSS12 (11739890_at) / RFU BIN1 (11741810_x_at) / Fold change /veh BIN1 (11741810_x_at) / RFU WNT11 (11732464_a_at) / Fold change /veh WNT11 (11732464_a_at) / RFU C10orf10 (11716521_a_at) / Fold change /veh C10orf10 (11716521_a_at) / RFU C5orf56 (11738089_at) / Fold change /veh C5orf56 (11738089_at) / RFU CYB561 (11721691_x_at) / Fold change /veh CYB561 (11721691_x_at) / RFU ANKRD19P (11752326_a_at) / Fold change /veh ANKRD19P (11752326_a_at) / RFU OR2T12 /// OR2T33 /// OR2T8 (11738714_s_at) / Fold change /veh OR2T12 /// OR2T33 /// OR2T8 (11738714_s_at) / RFU VCAN (11748164_a_at) / Fold change /veh VCAN (11748164_a_at) / RFU JSRP1 (11732532_at) / Fold change /veh JSRP1 (11732532_at) / RFU KRTAP10-11 (11738290_x_at) / Fold change /veh KRTAP10-11 (11738290_x_at) / RFU MYO3A (11730013_a_at) / Fold change /veh MYO3A (11730013_a_at) / RFU EBF3 (11725865_a_at) / Fold change /veh EBF3 (11725865_a_at) / RFU CAMK2N1 (11719241_x_at) / Fold change /veh CAMK2N1 (11719241_x_at) / RFU C5orf56 (11738088_a_at) / Fold change /veh C5orf56 (11738088_a_at) / RFU OLFML3 (11715873_a_at) / Fold change /veh OLFML3 (11715873_a_at) / RFU LOC100653217 /// NTM (11731650_a_at) / Fold change /veh LOC100653217 /// NTM (11731650_a_at) / RFU MAPK11 (11762145_a_at) / Fold change /veh MAPK11 (11762145_a_at) / RFU FIZ1 (11724087_x_at) / Fold change /veh FIZ1 (11724087_x_at) / RFU OASL (11726364_x_at) / Fold change /veh OASL (11726364_x_at) / RFU SOX15 (11748057_x_at) / Fold change /veh SOX15 (11748057_x_at) / RFU CD79A (11719716_a_at) / Fold change /veh CD79A (11719716_a_at) / RFU HIST1H1D (11736915_at) / Fold change /veh HIST1H1D (11736915_at) / RFU CASKIN2 (11723855_a_at) / Fold change /veh CASKIN2 (11723855_a_at) / RFU LOC730098 (11760151_x_at) / Fold change /veh LOC730098 (11760151_x_at) / RFU OR4N2 (11742367_at) / Fold change /veh OR4N2 (11742367_at) / RFU PRRT2 (11749266_a_at) / Fold change /veh PRRT2 (11749266_a_at) / RFU SNX32 (11753110_a_at) / Fold change /veh SNX32 (11753110_a_at) / RFU CDHR5 (11726645_a_at) / Fold change /veh CDHR5 (11726645_a_at) / RFU RCAN1 (11760418_a_at) / Fold change /veh RCAN1 (11760418_a_at) / RFU FAM167A (11723789_a_at) / Fold change /veh FAM167A (11723789_a_at) / RFU FAM26E (11764081_at) / Fold change /veh FAM26E (11764081_at) / RFU ISYNA1 (11749810_s_at) / Fold change /veh ISYNA1 (11749810_s_at) / RFU ACY1 (11761880_at) / Fold change /veh ACY1 (11761880_at) / RFU 11764098_at / Fold change /veh 11764098_at / RFU SAMD14 (11745864_x_at) / Fold change /veh SAMD14 (11745864_x_at) / RFU NPB (11741838_a_at) / Fold change /veh NPB (11741838_a_at) / RFU TMPRSS6 (11731388_a_at) / Fold change /veh TMPRSS6 (11731388_a_at) / RFU KRTAP10-2 (11738614_at) / Fold change /veh KRTAP10-2 (11738614_at) / RFU ARHGAP8 /// PRR5-ARHGAP8 (11727945_x_at) / Fold change /veh ARHGAP8 /// PRR5-ARHGAP8 (11727945_x_at) / RFU KRTAP5-7 /// NADSYN1 (11734609_at) / Fold change /veh KRTAP5-7 /// NADSYN1 (11734609_at) / RFU RASL12 (11751679_a_at) / Fold change /veh RASL12 (11751679_a_at) / RFU CDKN2B (11736163_a_at) / Fold change /veh CDKN2B (11736163_a_at) / RFU PRF1 (11729649_at) / Fold change /veh PRF1 (11729649_at) / RFU, ZNF638 /// ZNF638-IT1 / Fold change vs veh, ZNF638 /// ZNF638-IT1 / RFU, PANK3 / Fold change vs veh, PANK3 / RFU, SH3YL1 / Fold change vs veh, SH3YL1 / RFU, ZEB2 / Fold change vs veh, ZEB2 / RFU, NRIP1 / Fold change vs veh, NRIP1 / RFU, PTTG1IP / Fold change vs veh, PTTG1IP / RFU, CAPN2 / Fold change vs veh, CAPN2 / RFU, MED14 / Fold change vs veh, MED14 / RFU, SNORA58 / Fold change vs veh, SNORA58 / RFU, C1orf63 / Fold change vs veh, C1orf63 / RFU, LRRFIP1 / Fold change vs veh, LRRFIP1 / RFU, NDUFAF7 / Fold change vs veh, NDUFAF7 / RFU, SLC12A2 / Fold change vs veh, SLC12A2 / RFU, IBTK / Fold change vs veh, IBTK / RFU, ESF1 / Fold change vs veh, ESF1 / Fold change vs veh, TMEM50B / RFU, TAOK1 / Fold change vs veh, TAOK1 / RFU, ACBD3 / Fold change vs veh, ACBD3 / RFU, TMA16 / Fold change vs veh, TMA16 / RFU, RWDD3 / Fold change vs veh, RWDD3 / RFU, BCAT1 / Fold change vs veh, BCAT1 / RFU, EDEM3 / Fold change vs veh, EDEM3 / RFU, TMEM33 / Fold change vs veh, TMEM33 / RFU, WDR75 / Fold change vs veh, WDR75 / RFU, AHCTF1 / Fold change vs veh, AHCTF1 / RFU, TFRC / Fold change vs veh, TFRC / RFU, ZDHHC17 / Fold change vs veh, ZDHHC17 / RFU, NOM1 / Fold change vs veh, NOM1 / RFU, ARL8B / Fold change vs veh, ARL8B / RFU, ZBTB11 / Fold change vs veh, ZBTB11 / RFU, TAMM41 / Fold change vs veh, TAMM41 / RFU, KIAA1704 /// LOC100996395 / Fold change vs veh, KIAA1704 /// LOC100996395 / RFU, ING1 / Fold change vs veh, ING1 / RFU, TRMT61B / Fold change vs veh, TRMT61B / RFU, FUBP3 / Fold change vs veh, FUBP3 / RFU, TP53 / Fold change vs veh, TP53 / RFU, TNKS2 / Fold change vs veh, TNKS2 / RFU, ZFP14 / Fold change vs veh, ZFP14 / RFU, ACTR2 / Fold change vs veh, ACTR2 / RFU, PPP3R1 / Fold change vs veh, PPP3R1 / RFU, PIK3R1 / Fold change vs veh, PIK3R1 / RFU, HNRNPA1 / Fold change vs veh, HNRNPA1 / RFU, RNF170 / Fold change vs veh, RNF170 / RFU, ZNF28 / Fold change vs veh, ZNF28 / RFU, RNGTT / Fold change vs veh, RNGTT / RFU, OGT / Fold change vs veh, OGT / RFU, BRD1 / Fold change vs veh, BRD1 / RFU, MARS / Fold change vs veh, MARS / RFU, ZNF655 / Fold change vs veh, ZNF655 / RFU, FAHD1 / Fold change vs veh, FAHD1 / RFU, BDP1 / Fold change vs veh, BDP1 / RFU, LRRCC1 / Fold change vs veh, LRRCC1 / RFU, ARID1A / Fold change vs veh, ARID1A / RFU, ZNF146 / Fold change vs veh, ZNF146 / RFU, ZNF330 / Fold change vs veh, ZNF330 / RFU, GPN3 / Fold change vs veh, GPN3 / RFU, C9orf123 / Fold change vs veh, C9orf123 / RFU, N4BP2L2 / Fold change vs veh, N4BP2L2 / RFU, ARFIP1 / Fold change vs veh, ARFIP1 / RFU, FAM179B / Fold change vs veh, FAM179B / RFU, BCL10 / Fold change vs veh, BCL10 / RFU, UHRF1BP1L / Fold change vs veh, UHRF1BP1L / RFU, BET1 / Fold change vs veh, BET1 / RFU, CNOT2 / Fold change vs veh, CNOT2 / RFU, ZNF268 / Fold change vs veh, ZNF268 / Fold change vs veh, ZNF507 / RFU, DGCR2 / Fold change vs veh, DGCR2 / RFU, WDSUB1 / Fold change vs veh, WDSUB1 / Fold change vs veh, HSP90B1 /// MIR3652 / RFU, ADSS / Fold change vs veh, ADSS / RFU, GK / Fold change vs veh, GK / RFU, ZNF148 / Fold change vs veh, ZNF148 / RFU, TAF9 / Fold change vs veh, TAF9 / RFU, SLC1A5 / Fold change vs veh, SLC1A5 / RFU, SLMO2 / Fold change vs veh, SLMO2 / RFU, ABCC4 / Fold change vs veh, ABCC4 / RFU, LOC101060439 /// RAP1B / Fold change vs veh, LOC101060439 /// RAP1B / RFU, RFX7 / Fold change vs veh, RFX7 / RFU, GTPBP10 / Fold change vs veh, GTPBP10 / RFU, CNEP1R1 / Fold change vs veh, CNEP1R1 / RFU, BIVM-ERCC5 /// ERCC5 / Fold change vs veh, BIVM-ERCC5 /// ERCC5 / RFU, ILF3 / Fold change vs veh, ILF3 / RFU 11762660_at / Fold change /veh 11762660_at / RFU VCAN (11757783_s_at) / Fold change /veh VCAN (11757783_s_at) / RFU DDX43 (11728927_at) / Fold change /veh DDX43 (11728927_at) / RFU KRT8 (11758188_x_at) / Fold change /veh KRT8 (11758188_x_at) / RFU NKD1 (11759106_at) / Fold change /veh NKD1 (11759106_at) / RFU SRD5A1 (11742802_a_at) / Fold change /veh SRD5A1 (11742802_a_at) / RFU TPSAB1 /// TPSB2 (11721975_s_at) / Fold change /veh TPSAB1 /// TPSB2 (11721975_s_at) / RFU GSTM3 (11746129_a_at) / Fold change /veh GSTM3 (11746129_a_at) / RFU IL23R (11737362_x_at) / Fold change /veh IL23R (11737362_x_at) / RFU TMEM51 (11727254_a_at) / Fold change /veh TMEM51 (11727254_a_at) / RFU PIWIL2 (11732686_x_at) / Fold change /veh PIWIL2 (11732686_x_at) / RFU ORM1 (11744905_x_at) / Fold change /veh ORM1 (11744905_x_at) / RFU CCDC152 (11743942_at) / Fold change /veh CCDC152 (11743942_at) / RFU ECM1 (11717891_a_at) / Fold change /veh ECM1 (11717891_a_at) / RFU IL23R (11748794_a_at) / Fold change /veh IL23R (11748794_a_at) / RFU TNFAIP8L3 (11732012_x_at) / Fold change /veh TNFAIP8L3 (11732012_x_at) / RFU MBOAT4 (11741988_at) / Fold change /veh MBOAT4 (11741988_at) / RFU 11764193_at / Fold change /veh 11764193_at / RFU TMEM53 (11763286_at) / Fold change /veh TMEM53 (11763286_at) / RFU MAGEB2 (11727129_at) / Fold change /veh MAGEB2 (11727129_at) / RFU TMEM200A (11744735_a_at) / Fold change /veh TMEM200A (11744735_a_at) / RFU CCDC152 (11751479_a_at) / Fold change /veh CCDC152 (11751479_a_at) / RFU FAM211A (11726209_a_at) / Fold change /veh FAM211A (11726209_a_at) / RFU RGS16 (11746705_a_at) / Fold change /veh RGS16 (11746705_a_at) / RFU VCAN (11755009_s_at) / Fold change /veh VCAN (11755009_s_at) / RFU RHOB (11743442_s_at) / Fold change /veh RHOB (11743442_s_at) / RFU RGS16 (11720943_a_at) / Fold change /veh RGS16 (11720943_a_at) / RFU RGS16 (11720944_at) / Fold change /veh RGS16 (11720944_at) / RFU, VPS4B / Fold change vs veh, VPS4B / RFU, CREB1 / Fold change vs veh, CREB1 / RFU, DNAJC13 / Fold change vs veh, DNAJC13 / RFU, GNAQ / Fold change vs veh, GNAQ / RFU, CDK5R1 / Fold change vs veh, CDK5R1 / RFU, ZRANB3 / Fold change vs veh, ZRANB3 / RFU, CUL4A / Fold change vs veh, CUL4A / RFU, CCNY / Fold change vs veh, CCNY / RFU, UFL1 / Fold change vs veh, UFL1 / RFU, COG3 / Fold change vs veh, COG3 / RFU, DIAPH2 / Fold change vs veh, DIAPH2 / RFU, SKA2 / Fold change vs veh, SKA2 / RFU, AFF3 / Fold change vs veh, AFF3 / RFU, LMF1 / Fold change vs veh, LMF1 / RFU, IPO11 / Fold change vs veh, IPO11 / RFU, DFFB / Fold change vs veh, DFFB / RFU, FOXP1 / Fold change vs veh, FOXP1 / RFU, CARD8 / Fold change vs veh, CARD8 / RFU, STRN3 / Fold change vs veh, STRN3 / RFU, ADK / Fold change vs veh, ADK / RFU, RASSF2 / Fold change vs veh, RASSF2 / RFU, WIPF1 / Fold change vs veh, WIPF1 / RFU, LARP1B / Fold change vs veh, LARP1B / RFU, RASA1 / Fold change vs veh, RASA1 / RFU, RB1 / Fold change vs veh, RB1 / RFU, PPFIA1 / Fold change vs veh, PPFIA1 / RFU, MAT2A / Fold change vs veh, MAT2A / RFU, CCT5 / Fold change vs veh, CCT5 / RFU, WDR92 / Fold change vs veh, WDR92 / RFU, CUX1 / Fold change vs veh, CUX1 / RFU, TTC7A / Fold change vs veh, TTC7A / RFU, TMEM135 / Fold change vs veh, TMEM135 / RFU, DEPTOR / Fold change vs veh, DEPTOR / RFU, CPM / Fold change vs veh, CPM / RFU, DNAJB6 / Fold change vs veh, DNAJB6 / RFU, CACNA2D3 / Fold change vs veh, CACNA2D3 / RFU, DTX4 / Fold change vs veh, DTX4 / RFU, TFCP2 / Fold change vs veh, TFCP2 / RFU, GMCL1 /// GMCL1P1 / Fold change vs veh, GMCL1 /// GMCL1P1 / RFU, AEBP2 / Fold change vs veh, AEBP2 / RFU, SNHG1 /// SNORD22 /// SNORD25 /// SNORD26 /// SNORD27 /// SNORD28 /// SNORD29 /// SNORD31 / Fold change vs veh, SNHG1 /// SNORD22 /// SNORD25 /// SNORD26 /// SNORD27 /// SNORD28 /// SNORD29 /// SNORD31 / Fold change (Aza/veh), C12orf56 (ProbeSet 11735607_a_at) / Fold change (ACY-1035/veh), C12orf56 (ProbeSet 11735607_a_at) / Fold change (Aza/veh), FGFR1OP (ProbeSet 11751329_s_at) / Fold change (ACY-1035/veh), FGFR1OP (ProbeSet 11751329_s_at) / Fold change (Aza/veh), VPS36 (ProbeSet 11739960_a_at) / Fold change (ACY-1035/veh), VPS36 (ProbeSet 11739960_a_at) / RFU SYPL1 (11715823_x_at) / Fold change /veh SYPL1 (11715823_x_at) / RFU IGFBP7 (11715501_s_at) / Fold change /veh IGFBP7 (11715501_s_at) / RFU REEP3 (11722064_at) / Fold change /veh REEP3 (11722064_at) / RFU IGLL1 (11728026_x_at) / Fold change /veh IGLL1 (11728026_x_at): dose or concentration left out as unconfirmed
Conditions: MV-4-11 cells, 48 hours

Nc1ccc(-c2cccs2)cc1NC(=O)c1ccc2c(c1)cc(C1CC1)n2CCN1CCOCC1 [ACY-1035]
Fold change /veh CDHR5 (11726645_a_at): 1.11
